Test results reported in patent EP0094564A2, “Azolyl-methyl oxiranes, their preparation and use as medicaments and plant protecting agents” (BASF Aktiengesellschaft, priority 1982, dated 1983).
In brackets after ≈: the same amount, converted by molar mass.

Experiments:
[1] = test system: Weizenbraunrost (Puccinia recondita); assay: Versuch 2: activity against wheat brown rust on wheat seedlings; type: in vivo; details: 0,025; 0,006; 0,0015 %ige Spritzbrühen; sprayed 24 h after inoculation; assessed after 8 days; value given as 'beispielsweise'
Experimental: Blätter von in Töpfen gewachsenen Weizensämlingen der Sorte "Jubilar" wurden mit Sporen des Braunrostes (Puccinia recondita) bestäubt. Danach wurden die Töpfe für 24 Stunden bei 20 bis 22°C in eine Kammer mit hoher Luftfeuchtigkeit (90 bis 95 %) gestellt. Während dieser Zeit keimten die Sporen aus und die Keimschläuche drangen in das Blattgewebe ein. Die infizierten Pflanzen wurden anschließend mit wäßrigen Spritzbrühen, die 80 % Wirkstoff und 20 % Emulgiermittel in der Trockensubstanz enthielten, tropfnaß gespritzt. Nach dem Antrocknen des Spritzbelages wurden die Versuchspflanzen im Gewächshaus bei Temperaturen zwischen 20 und 22°C und 65 bis 70 % relativer Luftfeuchte aufgestellt. Nach 8 Tagen wurde das Ausmaß der Rostpilzentwicklung auf den Blättern ermittelt.

Botrytis cinerea = assay: Versuch 4: activity against Botrytis cinerea on paprika seedlings; type: in vivo; details: 0,05 %ige Spritzbrühe; sprayed before inoculation; assessed after 5 days; value given as 'beispielsweise'
Excerpt: Paprikasämlinge der Sorte "Neusiedler Ideal Elite" wurden, nachdem sich 4 bis 5 Blätter gut entwickelt hatten, mit wäßrigen Suspensionen, die 80 % Wirkstoff und 20 % Emulgiermittel in der Trockensubstanz enthielten, tropfnaß gespritzt. Nach dem Antrocknen des Spritzbelages wurden die Pflanzen mit einer Konidienaufschwemmung des Pilzes Botrytis cenerea besprüht und bei 22 bis 24 C in eine Kammer mit hoher Luftfeuchtigkeit gestellt. Nach 5 Tagen hatte sich die Krankheit auf den unbehandelten Kontrollpflanzen so stark entwickelt, daß die entstandenen Blattnekrosen den überwiegenden Teil der Blätter bedeckten.

Cand.alb. M = assay: Candida albicans pseudomycelium/mycelium phase test, MIC (column M); type: cell-based; details: in vitro, read-out: Minimale Hemmkonzentration (MHK) Cand.alb. M
Excerpt: (§1) Die Wirkung gegen Dermatophyten, Bakterien und Protozonen kann nach Methoden, wie sie beispielsweise in P. Klein, Bakteriologische Grundlagen der chemotherapeutischen Laboratoriumspraxis, Springer-Verlag Berlin, 1957, beschrieben wird, aufgezeigt werden. Die überraschende Wirkung gegenüber Hefen wurde im Pseudomyzel- und Myzelphasentest mit Candida albicans nachgewiesen (vgl. DE-OS 30 10 093). Es wurde geprüft, welche minimalen Hemmkonzentrationen (MHK-Werte) im Agardilutionstest erreicht werden. In der Tabelle 1 sind die Ergebnisse zusammengefaßt.

[2] = test system: Gurkenmehltau (Erysiphe cichoracearum); assay: Versuch 3: activity against cucumber powdery mildew on cucumber seedlings; type: in vivo; details: 0,025 %ige Spritzbrühe; sprayed about 20 h after inoculation; assessed after 21 days; value given as 'beispielsweise'
Excerpt: Blätter von in Töpfen gewachsenen Gurkenkeimlingen der Sorte "Chinesische Schlange" wurden im Zweiblattstadium mit einer Sporensuspension des Gurkenmehltaus (Erysiphe cichoracearum) besprüht. Nach etwa 20 Stunden wurden die Versuchspflanzen mit wäßriger Spritzbrühe, die 80 % Wirkstoff und 20 % Emulgiermittel in der Trockensubstanz enthielt, bis zur Tropfnässe besprüht. Nach dem Antrocknen des J Spritzbelages wurden sie anschließend im Gewächshaus bei Temperaturen zwischen 20 und 22^00 und 70 bis 80 % relativer Luftfeuchtigkeit aufgestellt. Zur Beurteilung der Wirksamkeit der neuen Stoffe wurde das Ausmaß der Pilzentwicklung nach 21 Tagen beurteilt.

Trichom. vag. = assay: Minimal inhibitory concentration in vitro (protozoa); type: cell-based; details: read-out: Minimale Hemmkonzentration (MHK) Trichom. vag.
Excerpt: as §1

Aps.fum. 2 = assay: Agar dilution test, minimal inhibitory concentration in vitro; type: cell-based; details: read-out: Minimale Hemmkonzentration (MHK) Aps.fum. 2
Excerpt: as §1

Mucor pus. 6 = assay: as above; type: cell-based; details: read-out: Minimale Hemmkonzentration (MHK) Mucor pus. 6
Excerpt: as §1

Abs. corym. 1 = assay: as above; type: cell-based; details: read-out: Minimale Hemmkonzentration (MHK) Abs. corym. 1
Excerpt: as §1

Staph. aur. SG 511 = assay: as above; type: cell-based; details: read-out: Minimale Hemmkonzentration (MHK) Staph. aur. SG 511
Excerpt: as §1

Microsp. ferrug. 5 = assay: as above; type: cell-based; details: read-out: Minimale Hemmkonzentration (MHK) Microsp. ferrug. 5
Excerpt: as §1

E.coli muta-flor = assay: as above; type: cell-based; details: Escherichia coli, read-out: Minimale Hemmkonzentration (MHK) E.coli muta-flor
Excerpt: as §1

Strept. faec. 8043 = assay: as above; type: cell-based; details: read-out: Minimale Hemmkonzentration (MHK) Strept. faec. 8043
Excerpt: as §1

Cand.alb. H = assay: Candida albicans pseudomycelium/mycelium phase test, MIC; type: cell-based; details: in vitro, column H, read-out: Minimale Hemmkonzentration (MHK) Cand.alb. H
Excerpt: as §1

Trichoph. ment. 21 = assay: Agar dilution test, minimal inhibitory concentration in vitro; type: cell-based; details: read-out: Minimale Hemmkonzentration (MHK) Trichoph. ment. 21
Excerpt: as §1

Epid. flocc. 157 = assay: as above; type: cell-based; details: read-out: Minimale Hemmkonzentration (MHK) Epid. flocc. 157
Excerpt: as §1

Trametes versicolor = assay: Versuch 6: fungal growth on malt extract agar containing active ingredient; type: cell-based; set-up: key: 0 = kein Pilzwachstum (Pilzmyzel abgetötet); 1 = geringes Pilzwachstum (bis 1/3 der Agaroberfläche bewachsen); 3 = mittleres Pilzwachstum (bis 2/3 der Agaroberfläche bewachsen); 5 = ungehemmtes Pilzwachstum (gesamte Agaroberfläche bewachsen); details: 40 ppm in 5 % malt extract agar; 5 days at 25 °C; growth score
Excerpt: (§2) Die Wirkstoffe werden in Aceton gelöst, in Mengen von 40 ppm einem verflüssigten 5 %igen Malzextraktagar zugesetzt. Der Agar wird in Petrischalen ausgegossen und nach dem Erstarren werden die fungizidhaltigen Nähragarplatten zentral mit Myzel der holzzerstörenden Pilze Coniophora puteana und Trametes versicolor, des Moderfäule und Stockflecken verursachenden Pilzes Chaetomium globosum sowie mit Sporen des grünen Holzschimmels Trichoderma viride beimpft.
(§3) Nach fünftägiger Bebrütung der Schalen bei 25 °C wird die Entwicklung der Pilzkolonien auf dem Nährboden im Vergleich mit der Kontrolle (ohne Wirkstoff-Zusatz) beurteilt: • 0 = kein Pilzwachstum (Pilzmyzel abgetötet) • 1 = geringes Pilzwachstum (bis 1/3 der Agaroberfläche bewachsen) • 3 = mittleres Pilzwachstum (bis 2/3 der Agaroberfläche bewachsen) • 5 = ungehemmtes Pilzwachstum (gesamte Agaroberfläche bewachsen)

Chaetomium globosum = assay: as above; type: cell-based; set-up: key: 0 = kein Pilzwachstum (Pilzmyzel abgetötet); 1 = geringes Pilzwachstum (bis 1/3 der Agaroberfläche bewachsen); 3 = mittleres Pilzwachstum (bis 2/3 der Agaroberfläche bewachsen); 5 = ungehemmtes Pilzwachstum (gesamte Agaroberfläche bewachsen); details: 40 ppm in 5 % malt extract agar; 5 days at 25 °C; growth score
Excerpt: as §2, §3

Coniophora puteana = assay: as above; type: cell-based; set-up: key: 0 = kein Pilzwachstum (Pilzmyzel abgetötet); 1 = geringes Pilzwachstum (bis 1/3 der Agaroberfläche bewachsen); 3 = mittleres Pilzwachstum (bis 2/3 der Agaroberfläche bewachsen); 5 = ungehemmtes Pilzwachstum (gesamte Agaroberfläche bewachsen); details: 40 ppm in 5 % malt extract agar; 5 days at 25 °C; growth score
Excerpt: as §2, §3

Trichoderma viride = assay: as above; type: cell-based; set-up: key: 0 = kein Pilzwachstum (Pilzmyzel abgetötet); 1 = geringes Pilzwachstum (bis 1/3 der Agaroberfläche bewachsen); 3 = mittleres Pilzwachstum (bis 2/3 der Agaroberfläche bewachsen); 5 = ungehemmtes Pilzwachstum (gesamte Agaroberfläche bewachsen); details: 40 ppm in 5 % malt extract agar; 5 days at 25 °C; growth score
Excerpt: as §2, §3

[3] = test system: Weizenmehltau (Erysiphe graminis var. tritici); assay: Versuch 1: activity against wheat powdery mildew on wheat seedlings; type: in vivo; details: 0,025; 0,006; 0,0015 %ige Spritzbrühen; sprayed 24 h before inoculation; assessed after 7 days; value given as 'beispielsweise'
Experimental: Blätter von in Töpfen gewachsenen Weizenkeimlingen der Sorte "Jubilar" wurden mit wäßriger Spritzbrühe, die 80 % (Gew.%) Wirkstoff und 20 % Emulgiermittel in der Trockensubstanz enthielt, besprüht und 24 Stunden nach dem Antrocknen des Spritzbelages mit Oidien (Sporen) des Weizenmehltaus (Erysiphe graminis var. tritici) bestäubt. Die Versuchspflanzen wurden anschließend im Gewächshaus bei Temperaturen zwischen 20 und 22 °C und 75 bis 80 % relativer Luftfeuchtigkeit aufgestellt. Nach 7 Tagen wurde das Ausmaß der Mehltauentwicklung ermittelt.

Row | SMILES | fungizide Wirkung gegen Weizenbraunrost [1] | fungizide Wirkung gegen Botrytis cinerea an Paprika (Botrytis cinerea) | fungizide Wirkung gegen Gurkenmehltau [2] | Wirksamkeit gegen Trametes versicolor (Trametes versicolor) | Wirksamkeit gegen Chaetomium globosum (Chaetomium globosum) | Wirksamkeit gegen Coniophora puteana (Coniophora puteana) | Wirksamkeit gegen Trichoderma viride (Trichoderma viride) | further results
1 | Clc1ccc(C2OC2(Cn2ccnc2)c2ccccc2)c(Cl)c1 (single isomer, unassigned) [Beispiel 6] | 100% | 97% | 100% | – | – | – | – | MIC (Cand.alb. M): < 0.0039 µg/mL; MIC (Trichom. vag.): > 16 µg/mL; MIC (Aps.fum. 2): 0.0625 µg/mL (≈ 0.181 µM); MIC (Mucor pus. 6): 4 µg/mL (≈ 11.6 µM); MIC (Abs. corym. 1): 8 µg/mL (≈ 23.2 µM); MIC (Staph. aur. SG 511): 16 µg/mL (≈ 46.3 µM); MIC (Microsp. ferrug. 5): 0.0625 µg/mL (≈ 0.181 µM); MIC (E.coli muta-flor): > 128 µg/mL; MIC (Strept. faec. 8043): 16 µg/mL (≈ 46.3 µM); MIC (Cand.alb. H): 32 µg/mL (≈ 92.7 µM)
2 | Clc1ccc(C2OC2(Cn2ccnc2)c2ccc(Br)cc2)c(Cl)c1 (single isomer, unassigned) [Beispiel 7] | – | – | – | – | – | – | – | MIC (Cand.alb. M): 0.0156 µg/mL (≈ 0.0368 µM); MIC (Trichom. vag.): > 16 µg/mL; MIC (Aps.fum. 2): 4 µg/mL (≈ 9.43 µM); MIC (Mucor pus. 6): 2 µg/mL (≈ 4.72 µM); MIC (Abs. corym. 1): 1 µg/mL (≈ 2.36 µM); MIC (Trichoph. ment. 21): 1 µg/mL (≈ 2.36 µM); MIC (Epid. flocc. 157): 1 µg/mL (≈ 2.36 µM); MIC (Staph. aur. SG 511): 16 µg/mL (≈ 37.7 µM); MIC (Microsp. ferrug. 5): 0.25 µg/mL (≈ 0.589 µM); MIC (E.coli muta-flor): > 128 µg/mL; MIC (Strept. faec. 8043): 16 µg/mL (≈ 37.7 µM); MIC (Cand.alb. H): 16 µg/mL (≈ 37.7 µM)
3 | Clc1ccc(C2(Cn3ccnc3)OC2c2ccccc2)cc1 (single isomer, unassigned) [Beispiel 9] | – | – | – | – | – | – | – | MIC (Trichom. vag.): > 16 µg/mL; MIC (Aps.fum. 2): 16 µg/mL (≈ 51.5 µM); MIC (Mucor pus. 6): 2 µg/mL (≈ 6.44 µM); MIC (Abs. corym. 1): 4 µg/mL (≈ 12.9 µM); MIC (Trichoph. ment. 21): 1 µg/mL (≈ 3.22 µM); MIC (Epid. flocc. 157): 1 µg/mL (≈ 3.22 µM); MIC (Staph. aur. SG 511): 128 µg/mL (≈ 412 µM); MIC (Microsp. ferrug. 5): 0.25 µg/mL (≈ 0.804 µM); MIC (E.coli muta-flor): > 128 µg/mL; MIC (Strept. faec. 8043): 128 µg/mL (≈ 412 µM); MIC (Cand.alb. H): > 1 µg/mL
4 | Clc1ccc(C2OC2(Cn2cncn2)c2ccc(Br)cc2)c(Cl)c1 (single isomer, unassigned) [Beispiel 10] | 100% | 97% | 100% | 0 | 0 | 0 | 0 | –
5 | CC(C)(C)C1(Cn2ccnc2)OC1c1ccc(Cl)cc1 (single isomer, unassigned) [Beispiel 14] | – | – | 100% | 0 | 0 | 0 | 0 | –
6 | CC(C)(C)C1(Cn2cncn2)OC1c1ccccc1 (single isomer, unassigned) [Beispiel 15] | – | – | 100% | 0 | 3 | 0 | 1 | –
7 | CC1(Cn2cncn2)OC1c1ccc(Cl)cc1Cl (single isomer, unassigned) [Beispiel 23] | – | – | – | 0 | 0 | 0 | 0 | –
8 | Clc1ccc(C2OC2(Cn2cncn2)c2ccc(Br)cc2)cc1 (single isomer, unassigned) [Beispiel 44] | 100% | 97% | 100% | 0 | 1 | 0 | 0 | fungizide Wirkung gegen Weizenmehltau [3]: 100%
9 | Fc1ccc(C2OC2(Cn2cncn2)c2ccc(Cl)cc2)cc1 (single isomer, unassigned) [Beispiel 45] | – | – | 100% | 0 | 1 | 0 | 0 | –
10 | Clc1ccc(C2(Cn3cncn3)OC2c2ccc(Br)cc2)cc1 (single isomer, unassigned) [Beispiel 46] | 100% | 97% | – | 0 | 0 | 0 | 0 | fungizide Wirkung gegen Weizenmehltau [3]: 100%
11 | Clc1ccc(C2(Cn3ccnc3)OC2c2ccc(Br)cc2)cc1 (single isomer, unassigned) [Beispiel 48] | – | – | – | 0 | 0 | 0 | 0 | –
12 | Clc1ccc(C2(Cn3ccnc3)OC2c2ccc(Br)cc2)c(Cl)c1 (single isomer, unassigned) [Beispiel 49] | – | – | – | 0 | 1 | 0 | 0 | –
13 | OC(Cn1ccnc1)c1ccc(Cl)cc1Cl (stereo not shown) [Wirkstoff A, 1-(2,4-Dichlorphenyl)-2-(imidazol-1-yl)-ethan-1-ol, reference compound] | 50% | 70% | – | – | – | – | – | fungizide Wirkung gegen Weizenmehltau [3]: 90%
14 | O=C(Cn1cncn1)c1ccc(Cl)cc1Cl [Wirkstoff B, (2,4-Dichlorphenyl)-1,2,4-triazol-1-yl-methylketon, reference compound] | 50% | 70% | – | – | – | – | – | fungizide Wirkung gegen Weizenmehltau [3]: 90%
